Measured values reported in patent US20210388319A1, “EXPANSION OF HEMATOPOIETIC STEM CELLS” (Mesoblast International Sarl, priority 2018, published 2021).

Columns and labels:
[1] = test system: CB CD34+ cells (cord blood derived CD34+ HSCs); assay: Co-culture of cord blood CD34+ cells with MPCs and small molecules, 4-colour flow cytometric analysis; type: cell-based, human; settings: for expansion of CD34+ cells with the primitive HSC phenotype CD34+CD45RA− CD90+CD49f+: day 10, presence of MPCs and HDACi versus absence of MPCs or a HDACi (FIG. 9)
Description: • Cells: CB CD34+ (Stem Cell Technologies) • Medium: StemSpan SFEM (StemCell Technologies) supplemented with: • Human low density lipoprotein (Stem Cell Technologies) 10 μg/ml • Growth Factors (‘SFT’): • rHu-SCF 100 ng/ml • rHu-FLT3Ligand 100 ng/ml • rHu-TPO 50 ng/ml • (All recombinant cytokines are from R&D Systems) • Small Molecules: • SR1 (500 nM); UM171 (35 nM); Trichostatin A (TSA, 50 nM); Valproic Acid (VPA, 500 μM) (all from Stem Cell Technologies) • Assay conditions: • Day −1 MPC (MCBCC006) plated at 50,000/well in 2×24-well plates in Alpha-MEM/10% FBS • Day 0 10,000 CD34+ cells per well plated into each well of two 24 well plates. MPC containing wells were first washed to remove FBS medium. • The remaining CD34+ cells were cultured at the same concentration in a T-25 flask in StemSpan/SFT/SR-1+ UM171. This was to provide bulk cells for set up of flow cytometry analysis and to define electronic compensation settings for multicolour analysis. • Day 3 All groups were fed by removing 1.5 mL of media and replacing with 2.0 mL of fresh media+additives. • Day 5 Flow cytometric analysis: 1.5 mL of culture media was harvested from each well. For the suspension (No MPG) groups this was achieved by first aspirating the medium up and down to completely suspend the CD34+ cells before removing 1.5 mL of the suspension. For the +MPG groups, the CD34+ cells were resuspended in such a way that the MPC feeder layer was left intact. After the cells were removed from each well, they were replaced with 2.0 mL of fresh media+additives. A cell count was performed on all wells. This was required to determine not only the incidence of populations identified by FACS analysis, but also their absolute number. • Day 8 All groups were fed by removing 2.0 mL of media and replacing with 2.0 mL of fresh media and additives. • Day 10 Flow cytometric analysis: The complete content of each well was harvested. For the suspension (No MPG) groups this was achieved by first aspirating the medium up and down to completely suspend the CD34+ cells before removing the suspension. For the +MPG groups, the CD34+ cells in suspension were first harvested (as described above for Day 5). CD34+ cells attached to the MPC layer were then detached by a brief exposure (5 mins) to 0.05% trypsin-EDTA in PBS at 37° C., the trypsin quenched in 10% FBS and the detached cells pooled with the previously harvested suspension fraction to represent the Day 10 harvest.
A 4-colour flow cytometric analysis was performed to allow identification and quantitation of CD34+ cells and relevant subpopulations including candidate hematopoietic stem cells (HSC) according to the phenotype CD34+CD45RA− CD90+CD49f+ described for cord blood (Notta et al., (2011) Science 333: 218-221). All antibody conjugates were used at concentrations recommended by the manufacturers.
As noted above, the bulk culture of CD34+ cells in StemSpan/SFT/SR-1+ UM171 was used at both Day 5 and Day 10 to establish settings for flow cytometric analysis and to establish compensation settings. Stains with the following antibody/antibody combinations were performed:
Cord blood derived CD34+ HSCs were cultured in the presence and absence of immunoselected MPCs in the presence of: […]

[2] = test system: CD34+CD38-CD45RA− CD90+CD49f+ cells; assay: Colony-forming unit (CFU) assay in MethoCult H4435 Enriched of FACS-isolated cells; type: cell-based, human; settings: cells isolated by FACS after 10 days in co-culture with MPCs, SFV and VPA; colonies scored on day 14
Description: FIG. 11: CD34+CD38-CD45RA− CD90+CD49f+ cells isolated by FACS were cultured in MethoCult™ H4435 Enriched (Stem cell Technologies), and tested for colony forming efficiency on day 14 of culture. Overall colony forming efficiency was 0.42%.
CD34+CD38-CD45RA− CD90+CD49f+ cells were isolated by FACS after 10 days in co-culture with MPCs, SFV and VPA. These isolated cells were then cultured in MethoCult™ H4435 Enriched (Stem cell Technologies), which is a complete methylcellulose-based medium containing IL-3, IL-6, G-CSF, GM-CSF, SCF and EPO and useful for growth and enumeration of hematopoietic progenitor cells in colony-forming unit (CFU) assays). Colonies were scored on day 14 of culture and tested for colony forming efficiency. […] Overall colony forming efficiency was 0.42%.

SMILES: CC(/C=C/C(=O)NO)=C\[C@@H](C)C(=O)c1ccc(N(C)C)cc1 [TSA, Trichostatin A]
- expansion of CD34+ cells with the primitive HSC phenotype CD34+CD45RA− CD90+CD49f+ [1]: substantially greater expansion

SMILES: CCCC(CCC)C(=O)O [VPA, Valproic Acid]
- number of CD34+CD45RA− CD90+CD49f+ cells ([1]; after 10 days in co-culture with MPCs, SFV and VPA (500 μM), start about 500 primitive cells): about 22,000 cells
- number of CD34+ cells ([1]; after 10 days in co-culture with MPCs, SFV and VPA (500 μM), start about 10,000 CD34+ cells): about 800,000 cells
- expansion of CD34+ cells with the primitive HSC phenotype CD34+CD45RA− CD90+CD49f+ [1]: substantially greater expansion
- increase in the number of CD34+CD90+CD49f+ cells ([1]; over a 10 day period, co-culture with MPCs, SFV and VPA): ~44 fold
- overall colony forming efficiency [2]: 0.42%
